What was measured:
A549 cells = conditions: data provided by National Cancer Institute, Developmental Therapeutic Program; cited from earlier work
[1] = tested on: tumor cell lines including SKOV3 and Colo205; assay: Inhibition of cellular proliferation in tumor cell lines (MTS, 48 hours); assay type: cell-based, human; conditions: various tumor cell lines including SKOV3 and Colo205; 'typically'
Procedure: Cells were plated in 96-well plates at densities from 1000-2500 cells/well of a 96-well plate and allowed to adhere/grow for 24 hours. They were then treated with various concentrations of drug for 48 hours. The time at which compounds are added is considered T0. A tetrazolium-based assay using the reagent 3-(4,5-dimethylthiazol-2-yl)-5-(3-carboxymethoxyphenyl)-2-(4-sulfophenyl)-2H-tetrazolium (MTS) (U.S. Pat. No. 5,185,450) (see Promega product catalog #G3580, CellTiter 96® AQueous One Solution Cell Proliferation Assay) was used to determine the number of viable cells at T0 and the number of cells remaining after 48 hours compound exposure. The number of cells remaining after 48 hours was compared to the number of viable cells at the time of drug addition, allowing for calculation of growth inhibition.
The growth over 48 hours of cells in control wells that had been treated with vehicle only (0.25% DMSO) is considered 100% growth and the growth of cells in wells with compounds is compared to this.
An IC50 was calculated by plotting the concentration of compound in μM vs the percentage of cell growth of cell growth in treated wells. The IC50 calculated for the compounds is the estimated concentration at which growth is inhibited by 50% compared to control, i.e., the concentration at which:
All concentrations of compounds are tested in duplicate and controls are averaged over 12 wells. A very similar 96-well plate layout and IC50 calculation scheme is used by the National Cancer Institute (see Monks, et al., J. Natl. Cancer Inst. 83:757-766 (1991)).

KSP motor domain = target: T1, KSP motor domain (Homo sapiens, UniProt P52732); assay: KSP ATPase assay (IC50 for KSP activity); assay type: biochemical
T1 construct: 100 nM KSP motor domain, 50 μg/ml microtubules
T1 sequence (P52732 18-359 limits assumed): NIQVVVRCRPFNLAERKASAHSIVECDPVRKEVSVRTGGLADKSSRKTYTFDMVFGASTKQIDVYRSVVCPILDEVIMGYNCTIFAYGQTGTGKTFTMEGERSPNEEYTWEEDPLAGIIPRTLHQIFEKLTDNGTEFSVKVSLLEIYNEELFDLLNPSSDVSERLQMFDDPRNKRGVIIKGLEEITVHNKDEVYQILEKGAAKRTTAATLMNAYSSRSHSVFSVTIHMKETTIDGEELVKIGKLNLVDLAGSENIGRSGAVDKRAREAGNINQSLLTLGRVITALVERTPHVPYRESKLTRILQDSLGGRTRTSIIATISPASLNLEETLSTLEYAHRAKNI
Procedure: One measure of inhibition is IC50, defined as the concentration of the composition at which the activity of KSP is decreased by fifty percent relative to a control. Preferred compositions have […] of less than about 1 mM, with preferred embodiments having IC50's of less than about 100 μM, with more preferred embodiments having IC50's of less than about 10 μM, with particularly preferred embodiments having IC50's of less than about 1 μM, and especially preferred embodiments having IC50's of less than about 100 nM, and with the most preferred embodiments having IC50's of less than about 10 nM. Measurement of IC50 is done using an ATPase assay.
Measurement of a composition's IC50 for KSP activity uses an ATPase assay. The following solutions are used: Solution 1 consists of 3 mM phosphoenolpyruvate potassium salt (Sigma P-7127), 2 mM ATP (Sigma A-3377), 1 mM DTT (Sigma D-9779), 5 μM paclitaxel (Sigma T-7402), 10 ppm antifoam 289 (Sigma A-8436), 25 mM Pipes/KOH pH 6.8 (Sigma P6757), 2 mM MgC12 (VWR JT400301), and 1 mM EGTA (Sigma E3889). Solution 2 consists of 1 mM NADH (Sigma N8129), 0.2 mg/ml BSA (Sigma A7906), pyruvate kinase 7 U/ml, L-lactate dehydrogenase 10 U/ml (Sigma P0294), 100 nM KSP motor domain, 50 μg/ml microtubules, 1 mM DTT (Sigma D9779), 5 μM paclitaxel (Sigma T-7402), 10 ppm antifoam 289 (Sigma A-8436), 25 mM Pipes/KOH pH 6.8 (Sigma P6757), 2 mM MgC12 (VWR JT4003-01), and 1 mM EGTA (Sigma E3889). Serial dilutions (8-12 two-fold dilutions) of the composition are made in a 96-well microtiter plate (Corning Costar 3695) using Solution 1. Following serial dilution each well has 50 μl of Solution 1. The reaction is started by adding 50 μl of solution 2 to each well. This may be done with a multichannel pipettor either manually or with automated liquid handling devices. The microtiter plate is then transferred to a microplate absorbance reader and multiple absorbance readings at 340 nm are taken for each well in a kinetic mode. The observed rate of change, which is proportional to the ATPase rate, is then plotted as a function of the compound concentration. For a standard IC50 determination the data acquired is fit by the following four parameter equation using a nonlinear fitting program (e.g., Grafit 4): […]
where y is the observed rate and x the compound concentration. […] By this we mean that although most of the compounds that inhibited KSP activity biochemically did inhibit cell proliferation, for some, at the highest concentration tested (generally about 20 μM), cell growth was inhibited less than 50%. […] Anti-proliferative compounds that have been successfully applied in the clinic to treatment of cancer (cancer chemotherapeutics) have IC50's that vary greatly. […]

| IC50 for inhibition of proliferation of tumor cell lines [1] | IC50 for inhibition of KSP (KSP motor domain) | SMILES | IC50 (A549 cells) [nM] |
| --- | --- | --- | --- |
| not active | not active | Nc1cccc2c1[nH]c1ccc(C(F)(F)F)cc12 [6-(trifluoromethyl)-9H-carbazol-1-ylamine] |  |
| not active | not active | CS(=O)(=O)Nc1ccc2[nH]c3ccc(C(F)(F)F)cc3c2c1 [6-(trifluoromethyl-9H-carbazol-3-yl)-methanesulfonamide] |  |
| not active | not active | NC(=O)Nc1ccc2[nH]c3ccc(C(F)(F)F)cc3c2c1 [(6-Trifluoromethyl-9H-carbazol-3-yl)-urea] |  |
| not active | not active | CS(=O)(=O)Nc1cccc2c1[nH]c1ccc(C(F)(F)F)cc12 [N-[6-(trifluoromethyl)-9H-carbazol-1-yl]methanesulfonamide] |  |

Further lines, the compound ahead of its results:

| SMILES | IC50 for inhibition of proliferation of tumor cell lines [1] | IC50 for inhibition of KSP (KSP motor domain) | IC50 (A549 cells) [nM] |
| --- | --- | --- | --- |
| O=c1[nH]cc(F)c(=O)[nH]1 [5-fluorouracil] |  |  | 1000 |
| COc1cccc2c1C(=O)c1c(O)c3c(c(O)c1C2=O)C[C@@](O)(C(=O)CO)C[C@@H]3O[C@H]1C[C@H](N)[C@H](O)[C@H](C)O1 [doxorubicin] |  |  | 63 |
| NC(=O)NO [hydroxyurea] |  |  | 500000 |
| CC(=O)O[C@H]1C(=O)[C@@]2(C)[C@H]([C@H](OC(=O)c3ccccc3)[C@]3(O)C[C@H](OC(=O)[C@H](O)[C@@H](NC(=O)c4ccccc4)c4ccccc4)C(C)=C1C3(C)C)[C@]1(OC(C)=O)CO[C@@H]1C[C@@H]2O [paclitaxel] |  |  | 4 |

Source: patent US20090170882A1, “Methods and compositions” (priority 2004, published 2009)
